Experimental data as given in patent publication US8883763B2 (Universite Joseph Fourier, priority 2010, dated 2014).
pIC50: −log10 of the molar value.

Legend:
HeLa cells = assay: Indirect immunofluorescence: effect on HeLa cells (mitotic arrest, microtubule depolymerization); format: cell-based, human; parameters: key to Effect on Hela at 25 μM / Effect on Hela at 100 μM / Effect on Hela at 50 and 100 μM / Effect on Hela at 50 μM: —: −: no activity on the cells at 25 μM (if there is an effect at high concentrations, this is specified in the table).; *: weak activity (MA and/or slight depolymerization of the MTs and/or slight inhibition of proliferation),; **: average activity (MA and/or moderate depolymerization of the MTs and/or moderate inhibition of proliferation),; ***: strong activity (MA and/or pronounced depolymerization of the MTs and/or pronounced inhibition of proliferation),; ****: very strong activity (MA and/or very pronounced depolymerization of the MTs and/or strong inhibition of proliferation)
Summary of the method: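 HeLa cells exposed 24 h to compound (100 μM to 50 nM; primary series 1–10 μM), DMSO controls. PFA/glutaraldehyde-fixed cells immunostained for α-tubulin, actin (phalloidin) and DNA (Hoechst); fluorescence microscopy scored phenotypes and mitotic index, with mitotic index and/or MT depolymerization evaluated at 25 μM.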

PP1α (PP1CA) = target: T1, PP1α (PP1CA) (Oryctolagus cuniculus, UniProt P62139); assay: Protein phosphatase test (PP1 activity, DiFMUP fluorescent substrate); format: biochemical; conditions: PP1CA at 80 mU, fluorescent substrate (50 μM), molecules from 50 μM to 50 nM; read-out: PP1 Inhibition IC50
T1 construct: purchased New England Biolabs P0754
T1 sequence (P62139 whole entry): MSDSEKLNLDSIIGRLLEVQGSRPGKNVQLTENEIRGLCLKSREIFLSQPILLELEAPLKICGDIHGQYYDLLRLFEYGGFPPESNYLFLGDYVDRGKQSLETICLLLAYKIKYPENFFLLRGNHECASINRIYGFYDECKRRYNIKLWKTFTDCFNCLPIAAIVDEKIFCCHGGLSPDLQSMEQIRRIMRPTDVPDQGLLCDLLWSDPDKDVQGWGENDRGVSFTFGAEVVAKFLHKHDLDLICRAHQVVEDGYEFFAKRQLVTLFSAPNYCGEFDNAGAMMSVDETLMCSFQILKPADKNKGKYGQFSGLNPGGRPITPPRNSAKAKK
Summary of the method: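 PP1α (30 or 80 mU) in 100 mM Tris-HCl pH 7.5, 4 mM DTT, 0.2 mM EDTA, 0.5 mM MnCl2 was preincubated 15 min with compound (50 μM to 50 nM), then given 60 μM DiFMUP for 20 min at 37 °C. Phosphatase activity was read as fluorescence at 355-460 nm, three times in duplicate.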

In the case of `COc1ccc(-c2[nH]c(=O)c3cc(OC)ccc3c2[N+](=O)[O-])cc1` [Compound 6, 7-methoxy-3-(4-methoxyphenyl)-4-nitroisoquinoline-1(2H)-one], the “Effect on Hela at 25 μM” value (HeLa cells; 25 μM, 24 hours, mitotic index and/or depolymerization of the MTs) was “****”, the “phenotype on microtubules and actin cytoskeleton, HeLa cells in interphase” value (HeLa cells; 1 and 10 μM for 24 hours) was “depolymerization of the microtubules and a reorganization of the actin cytoskeleton” and the “phenotype on microtubules and actin cytoskeleton, HeLa cells in mitosis” value (HeLa cells; 1 and 10 μM for 24 hours) was “depolymerization of the spindle microtubules and actin blebbing at the level of the cortex”. The pIC50 (PP1α (PP1CA)) was ≥ 5.05.
